Each structure is given as a SMILES string. Counter-ions that a name gives are not always drawn.

T1 sequence (P23975 whole entry): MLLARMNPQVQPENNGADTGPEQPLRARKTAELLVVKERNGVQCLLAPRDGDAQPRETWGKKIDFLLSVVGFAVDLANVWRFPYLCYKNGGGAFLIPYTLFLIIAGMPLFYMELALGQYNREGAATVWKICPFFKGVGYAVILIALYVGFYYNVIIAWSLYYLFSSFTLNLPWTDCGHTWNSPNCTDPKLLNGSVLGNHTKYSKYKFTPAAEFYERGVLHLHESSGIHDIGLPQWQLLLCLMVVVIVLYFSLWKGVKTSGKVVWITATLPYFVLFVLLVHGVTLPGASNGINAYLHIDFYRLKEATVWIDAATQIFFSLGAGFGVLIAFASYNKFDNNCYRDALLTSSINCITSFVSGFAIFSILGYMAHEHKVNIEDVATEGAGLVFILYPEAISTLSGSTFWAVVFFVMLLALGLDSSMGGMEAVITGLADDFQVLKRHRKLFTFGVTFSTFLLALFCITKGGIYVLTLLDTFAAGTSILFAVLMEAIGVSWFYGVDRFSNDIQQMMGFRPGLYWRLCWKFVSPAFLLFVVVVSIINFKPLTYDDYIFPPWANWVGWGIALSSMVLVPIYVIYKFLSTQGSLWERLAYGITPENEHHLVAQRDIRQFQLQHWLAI

The first test concerns the target T1, human hNET (Homo sapiens, UniProt P23975).
T1 construct: expressed in transfected cells; host or cells: MDCK-Net6 cells (MDCK, stably transfected)
Put plainly: Functional Norepinephrine (NE) Uptake Assay in MDCK-Net6 cells. Type of test: cell-based. The settings on record: % inhibition of NE uptake @ 6 μM; MDCK-Net6 cells; read-out: hNET IC50 (nM) (% Inhibition). As to the method:
MDCK-Net6 cells, stably transfected with human hNET (Pacholczyk, T., R. D. Blakely, and S. G. Amara, Nature, 1991, 350(6316): p. 350-4) were cultured in growth medium containing high glucose DMEM (Gibco, Cat. No. 11995), 10% FBS (dialyzed, heat-inactivated, US Bio-Technologies, Lot FBD1129HI) and 500 μg/ml G418 (Gibco, Cat. No. 10131). Cells were plated at 300,000 T75 flask and cells were split twice weekly.
On day 1, cells were plated at 3,000 cells/well in growth medium and maintained in a cell incubator (37° C., 5% CO2). On day 2, growth medium was replaced with 200 μl of assay buffer (25 mM HEPES; 120 mM NaCl; 5 mM KCl; 2.5 mM CaCl2; 1.2 mM MgSO4; 2 mg/ml glucose (pH 7.4, 37° C.)) containing 0.2 mg/ml ascorbic acid and 1 μM pargyline. For screening, 25 μl of compound in 4% DMSO was added directly to each well and the plate is incubated for 5 minutes at 37° C.
To initiate the norepinephrine reuptake, 16 nM (final concentration) of ^3H norepinephrine (specific activity; 40-80 Ci/mmol) in assay buffer was delivered in 25 μl aliquots to each well, and the plates were incubated for 5 minutes at 37° C. The reaction was aspirated from the plate and the cells washed with 250 μl of 50 mM Tris Buffer (4° C.). The plates were left to dry for 1 hour. The cells were lysed using 0.25 M NaOH solution then placed on a shake table and vigorously shaken for 10 minutes. After cell lysis, 100 μl of Microscint 20 (PerkinElmer; #87-051101) were added to the plates and the plates were sealed with film tape and replaced on the shake table for a minimum of 10 minutes. The plates were counted in a TopCount counter (PerkinElmer).
For screening single point determinations, each compound plate contains at least 3 control wells (maximum NE reuptake determinant) and 3 non-specific wells determined by adding 20 μM of desipramine (minimum NE reuptake determinant). Determination of active compounds are calculated using a Microsoft Excel spread sheet applying the following formula:
% inhibition=[1−((mean cpm test compound wells−mean cpm non-specific wells)/(mean cpm control wells−mean cpm non-specific wells))]×100
For IC50 determination, raw cpm values were generated in a data file from the TopCount counter. The data was organized using Microsoft Excel and transferred into PRIZM graphing and statistical program, which calculates the estimated IC50 value. Calculation of IC50 values were made using non-linear regression analysis with a sigmoidal dose response with variable slope. The statistical program used wells containing ^3H norepinephrine only as the maximal NE reuptake determinant and wells containing ^3H norepinephrine plus 20 μM desipramine as the minimal NE reuptake determinant (non-specific determinant). Estimation of the IC50 value was completed on a log scale and the line was fit between the maximal and minimal NE reuptake values.
One may read the inhibition as the share of the control response that was lost under treatment. As to `CNCC1Oc2ccccc2C1n1ccc2ccccc21` (racemic) [Example 11, (+/−)-1-[3-(1H-indol-1-yl)-2,3-dihydro-1-benzofuran-2-yl]-N-methyl methanamine hydrochloride], the inhibition at 6 µM is 42%.
Regarding `CN(C)C[C@@H]1Oc2ccccc2[C@H]1N1CC(C)(C)c2cccc(F)c21` [Example 7, 1-[(2S,3R)-3-(7-fluoro-3,3-dimethyl-2,3-dihydro-1H-indol-1-yl)-2,3-dihydro-1-benzofuran-2-yl]-N,N-dimethylmethanamine hydrochloride], the inhibition at 6 µM was 37%.
On to `CC(C)NC[C@@H]1Oc2ccccc2[C@H]1N1CC(C)(C)c2cccc(F)c21` [Example 6, N-{[(2S,3R)-3-(7-fluoro-3,3-dimethyl-2,3-dihydro-1H-indol-1-yl)-2,3-dihydro-1-benzofuran-2-yl]methyl}propan-2-amine hydrochloride], for which the inhibition at 6 µM is 30%.
Regarding `CCNC[C@@H]1Oc2ccccc2[C@H]1N1CC(C)(C)c2cccc(F)c21` [Example 8, N-{[(2S,3R)-3-(7-fluoro-3,3-dimethyl-2,3-dihydro-1H-indol-1-yl)-2,3-dihydro-1-benzofuran-2-yl]methyl}ethanamine hydrochloride], the inhibition at 6 µM amounted to 42%.
Consider `CNC[C@@H]1Oc2ccccc2[C@H]1N1CC(C)(C)c2cccc(F)c21` [Example 5, 1-[(2S,3R)-3-(7-fluoro-3,3-dimethyl-2,3-dihydro-1H-indol-1-yl)-2,3-dihydro-1-benzofuran-2-yl]-N-methylmethanamine hydrochloride], for which the inhibition at 6 µM is 63%.
Same read-out and setting: for `CNCC1Oc2cc(F)ccc2C1N1C(=O)C(C)(C)c2ccccc21` (stereo not drawn) [Example 14, 1-{6-fluoro-2-[(methylamino)methyl]-2,3-dihydro-1-benzofuran-3-yl}-3,3-dimethyl-1,3-dihydro-2H-indol-2-one hydrochloride] the value was 54%.

Staying with this test, now noted: MDCK-Net6 cells stably transfected with hNET; 3H norepinephrine uptake, 16 nM.
In general, IC50 refers to the point on the concentration scale where inhibition reaches its midpoint. Read a low IC50 as greater potency in that assay. As for `CNCC1Oc2ccccc2C1N1CCCc2ccccc21` (stereo not drawn) [Example 16, 1-[3-(3,4-dihydroquinolin-1(2H)-yl)-2,3-dihydro-1-benzofuran-2-yl]-N-methylmethanamine hydrochloride], half-maximal inhibition (IC50) was put at 811 nM.
The same measure, in the same setting: for `CNC[C@H]1Oc2ccccc2[C@@H]1N1CC(C)(C)c2cccc(F)c21` [Example 1, 1-[(2R,3S)-3-(7-fluoro-3,3-dimethyl-2,3-dihydro-1H-indol-1-yl)-2,3-dihydro-1-benzofuran-2-yl]-N-methylmethanamine hydrochloride] the value was 27.2 nM; for `CNC[C@@H]1Oc2cc(F)ccc2[C@H]1n1c(=O)n(C(C)C)c2cccc(F)c21` (single isomer, unassigned) [Example 19, hydrochloride], 12400 nM.
Still for that read-out and setting: as for `CNC[C@H]1Oc2ccc(F)cc2[C@@H]1N1CC(C)(C)c2cccc(F)c21` [Example 13, 1-[(2R,3S)-5-fluoro-3-(7-fluoro-3,3-dimethyl-2,3-dihydro-1H-indol-1-yl)-2,3-dihydro-1-benzofuran-2-yl]-N-methylmethanamine hydrochloride], the figure is 88.5 nM; as for `CNCC1Oc2ccccc2C1N(C)c1ccccc1` (stereo not drawn) [Example 17, N-methyl-2-[(methylamino)methyl]-N-phenyl-2,3-dihydro-1-benzofuran-3-amine hydrochloride], 3550 nM; as for `CNC[C@H]1Oc2cc(F)ccc2[C@@H]1n1c(=O)n(C(C)C)c2cccc(F)c21` (single isomer, unassigned) [Example 20, hydrochloride], 1750 nM.
Compound `CNCC1Oc2ccccc2C1n1ccc2ccccc21` (racemic) [Example 11, (+/−)-1-[3-(1H-indol-1-yl)-2,3-dihydro-1-benzofuran-2-yl]-N-methyl methanamine hydrochloride] came in with an IC50 of 301 nM.
Consider `CC1(C)CN([C@H]2c3ccccc3O[C@@H]2CN)c2c(F)cccc21` [Example 4, 1-[(2R,3S)-3-(7-fluoro-3,3-dimethyl-2,3-dihydro-1H-indol-1-yl)-2,3-dihydro-1-benzofuran-2-yl]methanamine hydrochloride], for which it took 95 nM to reach half-maximal inhibition (IC50).
Still for that read-out and setting: as for `CNCC1Oc2ccccc2C1N1C(=O)C(C)(C)c2ccccc21` (stereo not drawn) [Example 15, 3,3-dimethyl-1-{2-[(methylamino)methyl]-2,3-dihydro-1-benzofuran-3-yl}-1,3-dihydro-2H-indol-2-one hydrochloride], the figure is 1140 nM.
Still for that read-out and setting: for `CNCC1Oc2cc(F)ccc2C1n1c(=O)n(C(C)C)c2cccc(F)c21` (racemic) [Example 18, 4-Fluoro-3-{(2SR,3RS)-6-fluoro-2-[(methylamino)methyl]-2,3-dihydro-1-benzofuran-3-yl}-1-isopropyl-1,3-dihydro-2H-benzimidazol-2-one hydrochloride] the value was 3800 nM.
Compound `CNC[C@H]1Oc2ccccc2[C@@H]1N1CC(C)(C)c2cc(F)ccc21` [Example 2, 1-[(2R,3S)-3-(5-fluoro-3,3-dimethyl-2,3-dihydro-1H-indol-1-yl)-2,3-dihydro-1-benzofuran-2-yl]-N-methylmethanamine hydrochloride] gave an IC50 of 343 nM.
For `CNCC1Oc2ccccc2C1N1CCc2ccccc21` (racemic) [Example 10, (+/−)-1-[3-(2,3-dihydro-1H-indol-1-yl)-2,3-dihydro-1-benzofuran-2-yl]-N-methylmethanamine hydrochloride], the IC50 came out at 244 nM.
For `CNC[C@@H]1Oc2c(F)cccc2[C@H]1N1C(=O)C(C)(C)c2cccc(F)c21` [Example 12, 7-fluoro-1-{(2S,3R)-7-fluoro-2-[(methylamino)methyl]-2,3-dihydro-1-benzofuran-3-yl}-3,3-dimethyl-1,3-dihydro-2H-indol-2-one hydrochloride], it took 1030 nM to reach half-maximal inhibition (IC50).
In turn, `CN(C)C[C@H]1Oc2ccccc2[C@@H]1N1CC(C)(C)c2cccc(F)c21` [Example 3, 1-[(2R,3S)-3-(7-fluoro-3,3-dimethyl-2,3-dihydro-1H-indol-1-yl)-2,3-dihydro-1-benzofuran-2-yl]-N,N-dimethylmethanamine hydrochloride] returned an IC50 of 319 nM.
As to `CCOc1ccccc1O[C@H]1c2ccccc2O[C@@H]1CNC` [Example 9, 1-[(2R,3S)-3-(2-ethoxyphenoxy)-2,3-dihydro-1-benzofuran-2-yl]-N-methylmethanamine hydrochloride], the IC50 was found to be 846 nM.

The values are drawn from patent US20080153873A1, “DIHYDROBENZOFURANYL DERIVATIVES AND METHODS OF THEIR USE” (Wyeth, priority 2006, published 2008).
